Data from PMC4463418, “The Effect of Hydrophobic Monoamines on Acid-Sensing Ion Channels ASIC1B” (Acta Naturae, 2015).
Each block holds one compound with its values, some of them ahead of it.

Key:
Format in all cases: cell-based
ASIC1b [1] = target: T1, ASIC1b (Rattus norvegicus, UniProt P55926); assay: whole-cell patch clamp, CHO cells, activation at pH […]
T1 construct: gene Asic1; homomeric rASIC1b (splice variant) expressed in CHO cells
T1 sequence (P55926 186-526 limits assumed): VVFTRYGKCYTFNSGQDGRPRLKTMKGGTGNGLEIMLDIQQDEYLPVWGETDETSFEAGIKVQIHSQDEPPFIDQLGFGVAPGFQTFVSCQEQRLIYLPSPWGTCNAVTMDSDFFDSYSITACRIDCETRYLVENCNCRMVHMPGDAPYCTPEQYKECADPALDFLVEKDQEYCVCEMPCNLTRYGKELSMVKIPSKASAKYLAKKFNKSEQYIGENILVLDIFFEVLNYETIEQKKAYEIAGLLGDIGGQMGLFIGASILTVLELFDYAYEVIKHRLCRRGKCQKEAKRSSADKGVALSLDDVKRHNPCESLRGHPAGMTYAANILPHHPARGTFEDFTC

ASIC1b [2] = target: T1, ASIC1b; assay: whole-cell patch clamp, CHO cells, block at […], pH […]
ASIC1b [3] = target: T1, ASIC1b; assay: whole-cell patch clamp, CHO cells, inhibition at […]

SMILES: Nc1c2ccccc2nc2ccccc12 [9AA, 9-aminoacridine]
IC50 (ASIC1b [1]): 440 ± 20 µM

SMILES: N=C(N)NC(=O)c1nc(Cl)c(N)nc1N [amiloride]
inhibition at 30 µM (ASIC1b [2]): 53 ± 7%

inhibition at 1000 µM (ASIC1b [3]): 44 ± 16%
SMILES: CC12CC3CC(C)(C1)CC(N)(C3)C2 [memantine]
